Laboratory results as given in PubChem BioAssay AID1996.
Converted amounts (≈) assume the structure as drawn.

Settings: buffer; pH 7.4; 200.0 µM

Compound | solubility kinetic [µg/mL]
Cc1ccccc1NC(=O)C(NC1CCCCC1)C(C)C (stereo not drawn) | 6.7 (≈ 23.2 µM)
CC(=O)Nc1ccc(C(=O)NCCN2CCOCC2)cc1 | 36 (≈ 124 µM)
CC(=O)c1cnc(Oc2cc(Cl)ccc2Cl)nc1C | 42.4 (≈ 143 µM)
O=C(O)C1C2CCC(O2)C1C(=O)Nc1ccc(F)c(Cl)c1 (stereo not drawn) | > 47.1
CC(Nc1ccc2c(c1)OCCO2)C(=O)Nc1ccc2c(c1)OCO2 (stereo not drawn) | > 51.4
COc1ccccc1C(=O)NC(=O)COC(=O)CNC(=O)c1ccccc1F | > 58.3
COC(=O)C1(C(C[N+](=O)[O-])c2ccco2)C(=O)NCC1c1ccccc1 (stereo not drawn) | 11.1 (≈ 31 µM)
CCOc1ncccc1C(=O)OCc1cccc([N+](=O)[O-])c1 | 0.5 (≈ 1.65 µM)
Cc1nc2ccc([N+](=O)[O-])cc2c(=O)n1Cc1ccc(F)cc1 | 4.7 (≈ 15 µM)
CC1CC(C)CN(C(=O)C(C)N2CCN(S(=O)(=O)c3ccc(Br)s3)CC2)C1 (stereo not drawn) | 29.7 (≈ 62.1 µM)
O=C(/C=C/c1ccccn1)c1cc(Cl)cc(Cl)c1O | 5.9 (≈ 20.1 µM)
CCOc1ccccc1C(=O)N[C@H](C(=O)OCc1csc(CC(=O)Nc2ccc(C)cc2)n1)C(C)C | 6.9 (≈ 13.5 µM)
CN1CCCN(c2ccc([N+](=O)[O-])nc2)CC1 | > 35.4
NS(=O)(=O)c1cccc(NC(=O)CCCC2CCCCC2)c1 | 8.8 (≈ 27.1 µM)
CC(C)NCC(O)COCCOc1ccc(Cl)cc1.Cl (stereo not drawn) | > 48.6
Nc1cc(C(F)(F)F)ccc1N1CCOCC1 | 36.7 (≈ 149 µM)
O=C1CSC(c2ccccc2O)N1Cc1ccccc1 (stereo not drawn) | > 42.8
CCCN(CC(=O)Nc1ccccc1C)C(=O)c1cnc(C)cn1 | > 49
CNS(=O)(=O)c1cc(Nc2ncnc3sccc23)ccc1C | 2.5 (≈ 7.48 µM)
COC(=O)Cc1csc(NCc2ccccc2)n1 | 37.4 (≈ 143 µM)
O=C(CCCCCN1C(=O)c2ccccc2C1=O)Nc1cccc(O)c1 | 38.4 (≈ 109 µM)
CCOC(=O)N1CCN(c2nc3ccccn3c(=O)c2C=O)CC1 | > 49.6
C/C(=N\NC(=O)c1ccccc1C)c1cccnc1 | > 38
CCC(C(=O)Nc1ccc([N+](=O)[O-])cn1)c1ccccc1 (stereo not drawn) | 39.3 (≈ 138 µM)

Compound | solubility kinetic [µg/mL]
O=c1[nH]c2c(Br)cnc([N+](=O)[O-])c2[nH]1 | > 38.9
Cc1cnc(C(=O)Oc2ccc(-c3ccccc3)cc2)cn1 | 2.8 (≈ 9.64 µM)
CC(C)NC(=O)NC(=O)COC(=O)c1cc[n+]([O-])cc1 | > 42.2
CC(=O)C1C(c2ccc([N+](=O)[O-])cc2)c2c(noc2C)CC1(C)O (stereo not drawn) | > 49.6
COc1cc([N+](=O)[O-])ccc1NC(=O)NCCCN1CCCC1=O | > 50.5
CCN(C(=O)COC(=O)/C(C#N)=C/c1ccc(N(C)C)cc1)C1CCS(=O)(=O)C1 (stereo not drawn) | 4.8 (≈ 11.4 µM)
COc1ccc(OC)c(/C=C/C(=O)NCCc2nc3ccccc3[nH]2)c1 | 46.4 (≈ 132 µM)
COC(=O)COc1c(Cl)cc(Cl)c2ccc(C)nc12 | 6.7 (≈ 22.3 µM)
CC1CN(S(=O)(=O)c2cc(C(=O)NC(C)c3cccnc3)ccc2Cl)CC(C)O1 (stereo not drawn) | > 65.7
CCOc1ccc(NC(=O)Cc2ccc(S(=O)(=O)N3CCCCC3)cc2)cc1OCC | 7 (≈ 15.7 µM)
O=S(=O)(c1ccc(Cl)cc1)N1CCC2(CC1)OCCO2 | > 47.7
COc1ccc(N2CCOCC2)c(NC(=O)c2cccnc2)c1 | > 47
CCCCn1c(O)c(C(C)=NCc2ccc3c(c2)OCO3)c(=O)[nH]c1=O | 0.6 (≈ 1.67 µM)
CCN1CCN(C(=O)NC2CC(=O)N(c3ccc(OC)cc3)C2)CC1 (stereo not drawn) | > 52
Cn1ccnc1C(=O)c1ccc(N)cc1 | > 30.2
Cl.OC(COCc1ccccc1F)CN1CCCCC1 (stereo not drawn) | 44.1
O=C(c1ccccc1F)N1CCN(c2ccccn2)CC1 | > 42.8
Nc1cc2c(cc1Cl)N(Cc1ccccc1)C(=O)CO2 | > 43.3
Cc1ccc(C)c(N2CCN(C3CCCC(C)C3)CC2)c1 (stereo not drawn) | 23.3 (≈ 81.3 µM)
CC(=O)c1ccc(N2CCC(C)CC2)c(F)c1 | 6 (≈ 25.5 µM)
Cc1cc(OCC(=O)N(C)C2CCCCC2)ccc1Cl | 35.5 (≈ 120 µM)
O=C(/C=C/c1cccc([N+](=O)[O-])c1)N1CCN(c2ccccn2)CC1 | 3.1 (≈ 9.16 µM)
CC(=O)N1CCN(CC(=O)Nc2ccc(C#N)c(Cl)c2)CC1 | > 48.1
CC1CN(CC(=O)NCc2ccc(Cl)cc2)CC(C)O1 (stereo not drawn) | > 44.5

Compound | solubility kinetic [µg/mL]
Cc1cc(C)cc(NC(=O)COC(=O)c2cc(C)oc2C)c1 | < 0.6
COc1cc(C)c(NC(=S)NCCCN2CCOCC2)cc1OC | > 53
O=C(c1cc(Cl)ccc1Cl)N1CCc2ccccc21 | 12.1 (≈ 41.4 µM)
CC(NC(=O)c1cccc(F)c1)C1CC2CCC1C2 (stereo not drawn) | 19.9 (≈ 76.1 µM)
CCNS(=O)(=O)c1ccc(CCC(=O)NCc2ccccn2)cc1 | > 52.1
CCN1CCCC1CNC(=O)c1cc2ccc(OC)cc2[nH]1 (stereo not drawn) | > 45.2
CCOC(=O)c1c(NC(=O)C2CCCO2)sc(C)c1C (stereo not drawn) | 30 (≈ 101 µM)
COC(=O)C1CCN(CC(=O)NC(=O)NC2CCCCC2)CC1 | > 48.8
CC(C)(C)c1ccc(C(=S)N2CCN(c3ccccc3)CC2)cc1 | < 0.4
O=C(c1cccs1)N1CCN=C1SCc1cccc(F)c1 | < 0.3
O=C(Nc1cccc(S(=O)(=O)NC2=NCCC2)c1)c1ccccc1F | > 54.2
Cc1ccc(-n2c(O)c(C=NCCCn3ccnc3)c(=O)[nH]c2=O)cc1 | > 53
CCc1ccc(NC(=O)COC(=O)c2cccs2)cc1 | 2.8 (≈ 9.68 µM)
CC(=O)N1CC(=O)N(c2ccccc2)C1=O | > 32.7
CC(NC(=O)CN(C)CC(=O)Nc1ccc(Cl)cc1)c1ccc(F)cc1 (stereo not drawn) | > 56.7
CC(OC(=O)c1ccc(O)cc1)C(=O)Nc1ccc(Oc2ccccc2)cc1 (stereo not drawn) | 5 (≈ 13.2 µM)
O=C(O)c1cccnc1SCc1ccc([N+](=O)[O-])cc1 | > 43.5
Cc1ccc(C2NC(=O)c3ccccc3O2)cc1 (stereo not drawn) | 10.6 (≈ 44.3 µM)
Cc1ccc(NC(=O)O/N=C/c2cccc([N+](=O)[O-])c2)cc1 | 9.3 (≈ 31.1 µM)
O=C1CC(Nc2cc(=O)[nH]c(=O)[nH]2)C(=O)N1c1ccccc1Cl (stereo not drawn) | 39.4 (≈ 118 µM)
CC1(C)C(=O)Nc2ccccc2N1C(=O)COC(=O)c1cccc(O)c1 | 20.3 (≈ 57.3 µM)
COc1ccc(CNC(=O)c2cc(=O)c3cc(C)cc(C)c3o2)cc1 | < 0.7
O=S(=O)(c1ccc(Cl)cc1)N1CCN2CCCC2C1 (stereo not drawn) | > 45.1
Cc1[nH]c2ccccc2c1C(C[N+](=O)[O-])c1ccco1 (stereo not drawn) | 37.9 (≈ 140 µM)

Compound | solubility kinetic [µg/mL]
CC(=O)c1ccc([N+](=O)[O-])c(CS(=O)(=O)c2ccccc2)c1 | < 0.7
Cc1cc(NC(=O)c2ccccc2)ccc1NC(=O)Cc1ccccc1 | 0.8 (≈ 2.32 µM)
CCOc1ccc(C(=O)OC2CCCN(C)C2)cc1.Cl (stereo not drawn) | > 45
CC(=O)CC1(O)C(=O)Nc2ccccc21 (stereo not drawn) | 27.6 (≈ 134 µM)
CCCCOc1ccc(C(=O)NNC(=O)c2cnccn2)cc1OC | > 51.7
CCC(=Nc1ccccc1)C1=C(O)CCCC1=O | 19.9 (≈ 81.8 µM)
NC(=S)C1COc2ccccc2O1 (stereo not drawn) | > 29.3
NS(=O)(=O)c1ccc(CCNC(=O)CN2CCCCC2)cc1 | 45.4 (≈ 140 µM)
COc1ccccc1OCCn1c(=O)oc2ccc(C)cc21 | 4.2 (≈ 14 µM)
CCC(=O)Nc1ccc(OCc2nc3ccccc3s2)cc1 | 2.3 (≈ 7.36 µM)
COc1ccccc1OCCNC(=O)CN1C(=O)NC2(CCCCC2)C1=O | > 56.3
Cc1ccccc1OCC(=O)OCC(=O)Nc1ccc2c(c1)OCO2 | 14.9 (≈ 43.4 µM)
Cc1ccc(-c2nnc(SCC(=O)NC3CCCC3)n2N)cc1 | > 49.7
CC1CCCC(NC(=O)COC(=O)c2ccc3c(c2)OCCO3)C1C (stereo not drawn) | 5.3 (≈ 15.3 µM)
O=C(Nc1ccc2c(c1)OCO2)c1noc2c1CCCC2 | 4.1 (≈ 14.3 µM)
COc1c(Cl)cc(Cl)cc1C(=O)Nc1ccc(CN2CCOCC2)cc1 | 2.6 (≈ 6.58 µM)
CCOc1ccccc1NC(=O)Nc1cccc(S(N)(=O)=O)c1 | > 50.3
O=C(OCC(=O)N1CCC(Cc2ccccc2)CC1)c1cc(Br)ccc1O | 6 (≈ 13.9 µM)
O=C1CN(C(=O)COC(=O)c2cccs2)c2ccccc2N1 | 29.2 (≈ 92.3 µM)
CCCCOc1ccc(N=Cc2ccc[nH]2)cc1 | 34.9 (≈ 144 µM)
O=C(Nc1nc2c(F)c(F)c(F)cc2s1)c1ccco1 | < 0.3
O=c1cc(Cl)[nH]c(=O)n1Cc1ccc(F)cc1 | 34.9 (≈ 137 µM)
Cc1ccnc(SC2CC(=O)N(c3ccc(F)cc3)C2=O)n1 (stereo not drawn) | 38 (≈ 120 µM)
CC(NC(=O)c1ccccc1C(=O)O)c1ccc(-n2ccnc2)cc1 (stereo not drawn) | > 50.3

Compound | solubility kinetic [µg/mL]
Cl.c1ccc(SCCOCCN2CCOCC2)cc1 | 43.4
CN(CCc1cnn(C)c1)Cc1cn(C)nc1-c1ccccc1F | > 49.1
Cc1cnc(C(=O)OCc2ccc(Br)cc2)cn1 | 19 (≈ 61.9 µM)
COC(=O)c1ccc(COC(=O)CNC(=O)C2CCCCC2)cc1 | 16.3 (≈ 48.9 µM)
CCC1(C)Cc2ccccc2-c2nc(SCC(N)=O)[nH]c(=O)c21 (stereo not drawn) | 0.8 (≈ 2.43 µM)
Cc1cc(NC(=O)NC2CC(=O)N(c3ccc4c(c3)OCCO4)C2)no1 (stereo not drawn) | 48.5 (≈ 135 µM)
CC(=O)c1c(C)[nH]c(=S)c(C#N)c1-c1ccc(F)cc1 | > 42.9
S=C(NCc1ccco1)Nc1ccc(Oc2ccc(Cl)cc2)cc1 | < 0.4
CC1(C)CC(=O)C2=C(C1)NC(=O)NC2c1ccccc1 (stereo not drawn) | 39.9 (≈ 148 µM)
Oc1ccc2ccccc2c1CNc1ccc(Br)cc1 | 5.5 (≈ 16.8 µM)
O=C1Nc2cc(C(F)(F)F)ccc2N2CCCCC12 (stereo not drawn) | 7.1 (≈ 26.3 µM)
CC(=O)c1c(C)[nH]c(C(=O)COC(=O)c2c(C)noc2C)c1C | 5.4 (≈ 17 µM)
Cc1cccc(NC(=S)NC(=O)c2oc3ccccc3c2C)n1 | < 0.2
CCC1CCC/C1=N\NC(=O)c1ccc(Cl)cc1 (stereo not drawn) | > 39.7
Cc1cccc(C)c1OCC(=O)Nc1ccc2c(c1)C(=O)NC2=O | 1.2 (≈ 3.7 µM)
Cc1ccc2cc(NC(=O)c3cccc(F)c3)ccc2n1 | 28.6 (≈ 102 µM)
CCCC(=O)NNC(=O)CCC(=O)Nc1ccccc1Cl | > 46.8
COc1ccc(N2CC(C(=O)NC3CCCCC3)CC2=O)cc1 (stereo not drawn) | 25.3 (≈ 80 µM)
Cc1nccn1CC(O)COc1ccc([N+](=O)[O-])cc1 (stereo not drawn) | > 41.6
Cc1ccc(C(=O)OCC(=O)NC(=O)c2ccccc2)o1 | 32.9 (≈ 115 µM)
Cc1sc2nc(SCCO)n(-c3ccccc3)c(=O)c2c1C | 1.4 (≈ 4.21 µM)
COc1ccc(OC)c(C2=NOC(C(=O)NCc3cccnc3)C2)c1 (stereo not drawn) | 47.8 (≈ 140 µM)
